Data set [1] can be described thus: Aqueous solubility of the drug.
For data set [2] the following is noted: cited from earlier work.

Converted amounts (≈) assume the structure as drawn. Where a name gives a salt, the structure may show the parent alone. Read-outs that look alike come from different tables or passages of the source.

Regarding “4-[3-[4-(2-methylimidazol-1 -yl) phenylthio]phenyl]-3,4,5,6-tetrahydro-2H-pyran-4-carboxamide hemifumarate [Drug 3]”, the solubility in data set [1] (pH 4) was 3.7 mgA/mL. Compound `CN[C@H]1CC[C@@H](c2ccc(Cl)c(Cl)c2)c2ccccc21` [Drug 2, sertraline HCl] displayed a solubility in data set [1] (aqueous, pH 7, aqueous buffer) of 200 µg/mL. In data set [1] (aqueous, pH 7.6, aqueous buffer), `COc1cc2nc(N3CCCN(C(=O)N4CCOCC4)CC3)cc(N)c2c(-c2ccc(F)cc2)c1OC` [Drug 5, 4-amino-5-(4-fluorophenyl)-6,7-dimethoxy-2-[4-(morpholinocarbonyl)perhydro-1,4-diazepin-1-yl]quinoline] registered a solubility of 400 µg/mL (≈ 785 µM). For `CN[C@H]1CC[C@@H](c2ccc(Cl)c(Cl)c2)c2ccccc21` [sertraline], the “solubility (in words)” value is “moderate solubility” in data set [2] (low pH), “extremely low solubility” in data set [2] (pH of about 7.5) and “low solubility” in data set [2] (pH values above 5).
